Data set [1] has as its system HIV-1 (NL4-3 strain). Nature of the data set: Protection against HIV-1 (NL4-3 strain)-induced cytopathogenicity in MT-4 cells, MTT assay. In kind it is cell-based. The settings on record: 50% protection from HIV-1 (NL4-3 strain)-induced cytopathogenicity in MT-4 cells. The method, then:
(§1) The anti-HIV activity of the synthesized compounds was assessed based on their protection against HIV-1 (NL4-3 strain)-induced cytopathogenicity in MT-4 cells using an MTT assay.[29–33] The cytotoxicity of these compounds was determined based on reduction of the viability of MT-4 cells, as determined by an MTT assay. […] MKN-3 (2) was designed by in silico screening in the same way as MKN-1 (1), and in terms of ligand efficacy MKN-3 (2), with a London dG value of −9.555, has a higher binding affinity than MKN-1 (1), with a London dG value of −9.134, for a CA molecule. The anti-HIV activity of MKN-3 (2) however, is remarkably lower than that of MKN-1 (1). The reason for this might be the poor cell membrane permeability of MKN-3 (2), which therefore could not penetrate the cells. In general, the hydrophobicity of compounds is correlated to their cell membrane permeability. […] We investigated the design of derivatives more hydrophobic than MKN-3 (2). For the design of MKN-3 (2) derivatives, the docking model of MKN-3 (2) and a CA protein was constructed, and a site in the MKN-3 (2) molecule, whose relationship with the interaction with a CA protein is unknown, was sought (Fig. 3). […] Consequently, this amino group was modified by alkylation or amidation, and was converted into a methylene group. Six derivatives (17, 18, 19, TKB063 (25), 26 and 27), with octanoyl, 2-propylpentanoyl, 2-phenylacetyl, i-propyl, n-heptyl or benzyl groups, respectively on the secondary nitrogen atom of the homopiperazine ring of MKN-3 (2), were synthesized. A derivative (29), with a methylene group in place of the secondary amine of the homopiperazine ring, was prepared. […] It was assumed that the anti-HIV activity of these MKN-3 (2) derivatives was increased as a result of their improved hydrophobicity and cell membrane permeability. If the hydrophobicity of such derivatives is higher (log P > 2), the cytotoxicity is higher (CC50 < 10 μM). […] Thus, TKB063 (25) can be seen to have some advantages.
For virus preparation, 293T/17 cells (Invitrogen) maintained in Dulbecco's modified Eagle medium (DMEM) containing 10% FBS, in a T-75 flask were transfected with 10 μg of the pNL4-3 construct by the calcium phosphate method. The supernatant was collected 48 h after transfection, passed through a 0.45 μm filter, and stored at −80 °C as a stock virus.
(§2) The inhibitory activity of test compounds against X4-HIV-1 (NL4-3 strain)-induced cytopathogenicity in MT-4 cells,[83] which are maintained in RPMI-1640 containing 10% FBS, was assessed by an MTT assay. Various concentrations of test compound solutions were added to HIV-1-infected MT-4 cells at multiplicity of infection (MOI) of 0.001, and placed in wells of a 96-well microplate. The test compounds and the reference compounds, e.g. AZT, were diluted by factors of two or five, respectively. After 5 days' incubation at 37 °C in a CO2 incubator, the number of viable cells was determined by the MTT assay. Cytotoxicities of the test compounds were determined based on reduction of the viability of MT-4 cells measured in the MTT assay. A reverse transcriptase inhibitor, AZT, was purchased from Sigma Aldrich and employed as a positive control compound with anti-HIV activity.

The subject of data set [2] is HIV. As to conditions: cited from earlier work.
A short description of data set [3]: Cytotoxicity: reduction of the viability of MT-4 cells, MTT assay. The format is cell-based. The settings on record: human. On the procedure: as §1, §2
(In general: Tetrazolium assays rely on reduction of a dye to a coloured formazan, in cell work by metabolically active cells.)

In data set [4] the test system is MT-4 cells. Described as above. The settings on record: Table 3; 50% reduction of the viability of MT-4 cells. In kind it is cell-based. On the procedure:
as §1, §2

Setting [5] is: Human immunodeficiency virus 1, NL43, MT4, Table 2.
[6] abbreviates: Table 2, 50% reduction of the viability of MT-4 cells, read-out: CC50.
Where [7] appears, read: Human immunodeficiency virus 1, NL43, MT4, Table 3.
The mark [8] stands for this setting: Human immunodeficiency virus 1, NL43, MT4, Table 4.
[9] abbreviates: Table 4, 50% reduction of the viability of MT-4 cells, read-out: CC50.

Like-named read-outs stand apart in the source and are kept apart here.

For the compound `Cc1cn([C@H]2C[C@H](N=[N+]=[N-])[C@@H](CO)O2)c(=O)[nH]c1=O` [AZT, reference compound], the EC50 (commonly the midpoint of the concentration-response curve) in data set [1] (Table 2) was determined as 0.021 µM; in data set [1] (Table 3), 0.025 µM; in data set [1] (Table 4), 0.04 µM.
Take `C[C@H]1CO[C@@H]2Cn3cc(C(=O)NCc4ccc(F)cc4F)c(=O)c(O)c3C(=O)N12` [Cabotegravir]: the IC50/EC50 in data set [2] (Integrase inhibitor, ref [70]) is 0.00025 µM.
In turn, `CCCCCCCC(=O)N1CCCN([C@H](CCSC)C(=O)N2CCNCC2c2c[nH]c3ccccc23)CC1` (stereo partly drawn) [Compound 17] returned an EC50 in data set [1] (setting [5]) of 6 µM. The CC50 – broadly, the concentration giving 50% cytotoxicity – at 5 days in data set [3] (setting [6]) was 8.8 µM.
The matching figures for `CCCC(CCC)C(=O)N1CCCN([C@H](CCSC)C(=O)N2CCNCC2c2c[nH]c3ccccc23)CC1` (stereo partly drawn) [Compound 18]: above 9.1 µM and 9.1 µM.
Take `CSCC[C@H](C(=O)N1CCNCC1c1c[nH]c2ccccc12)N1CCCN(C(=O)Cc2ccccc2)CC1` (stereo partly drawn) [Compound 19]: the EC50 in data set [1] (setting [5]) came to 15 µM. The compound further gave a CC50 at 5 days in data set [3] of 33 µM.
Turning to `CCCCCCCN1CCCN([C@H](CCSC)C(=O)N2CCNCC2c2c[nH]c3ccccc23)CC1` (stereo partly drawn) [Compound 26], the concentration for a half-maximal effect (EC50) in data set [1] (setting [5]) amounted to 2.6 µM. Moreover, the cytotoxic concentration (CC50) at 5 days in data set [3] (setting [6]) was determined as 4.4 µM.
On to `CSCC[C@H](C(=O)N1CCNCC1c1c[nH]c2ccccc12)N1CCCN(Cc2ccccc2)CC1` (stereo partly drawn) [Compound 27], for which, in data set [1] (setting [5]), a half-maximal response (EC50) required 2.4 µM. Further, the CC50 at 5 days in data set [3] (setting [6]) was 9 µM.
The matching figures for `CSCC[C@H](C(=O)N1CCNCC1c1c[nH]c2ccccc12)N1CCCCCC1` (stereo partly drawn) [Compound 29]: 10 µM and 32 µM.
Turning to `COc1cnc(-n2cnc(C)n2)c2c1c(C(=O)C(=O)N1CCN(C(=O)c3ccccc3)CC1)cn2COP(=O)(O)O` [Fostemsavir], the IC50/EC50 in data set [2] (Entry inhibitor, ref [67]) was 0.0007 µM.
As for `C=C(C)[C@@H]1CC[C@]2(NCCN3CCS(=O)(=O)CC3)CC[C@]3(C)[C@H](CC[C@@H]4[C@@]5(C)CC=C(C6=CC[C@@](CF)(C(=O)O)CC6)C(C)(C)[C@@H]5CC[C@]43C)[C@@H]12` [GSK3640254], in data set [2] (Maturation inhibitor, ref [69]), the IC90/EC90 result was “(33 nM)”.
With `CC(C)(C#Cc1ccc(-c2ccc(Cl)c3c(NS(C)(=O)=O)nn(CC(F)(F)F)c23)c([C@H](Cc2cc(F)cc(F)c2)NC(=O)Cn2nc(C(F)(F)F)c3c2C(F)(F)[C@@H]2C[C@H]32)n1)S(C)(=O)=O` [Lenacapavir], the IC50/EC50 in data set [2] (Capsid inhibitor, ref [71]) is 0.0001 µM.
Turning to `CSCC[C@H](C)OC(=O)[C@@H](N)c1ccccc1-c1c[nH]c2ccccc12` [MKN-1 (1), reference compound], the results for the EC50 in data set [1] (setting [5]) and in data set [1] (setting [7]) were 2.2 µM and 2.3 µM, respectively. In addition, the half-maximal cytotoxic concentration (CC50) at 5 days in data set [3] (setting [6]) was determined as 15 µM.
On to `CSCCC(C(=O)N1CCNCC1c1c[nH]c2ccccc12)N1CCCNCC1` (stereo not drawn) [MKN-3 (2)], for which the EC50 in data set [1] (setting [5]) is 42 µM; in data set [1] (setting [7]), above 50 µM. Besides, in data set [3] (setting [6]), the CC50 at 5 days was above 50 µM.
As for `CSCC[C@H](C(=O)N1CCNCC1c1c[nH]c2ccccc12)N1CCCN(C(C)C)CC1` (stereo partly drawn) [TKB063 (25)], the values for the EC50 in data set [1] (setting [5]), in data set [1] (setting [7]) and in data set [1] (setting [8]) were 4.5 µM, 4.8 µM and 9.5 µM, respectively. Besides, the CC50 at 5 days in data set [3] (setting [6]) is above 50 µM.
Take `CSCCC(C(=O)N1CCNCC1c1c[nH]c2ccccc12)N1CCCN(C(C)C)CC1` (stereo not drawn) [TKB063A (25A)]: in data set [1] (setting [7]), a half-maximal response (EC50) required 5 µM. Moreover, the CC50 at 5 days in data set [3] (Table 3, 50% reduction of the viability of MT-4 cells, read-out: CC50) is above 50 µM.
Regarding `CSCCC(C(=O)N1CCNCC1c1c[nH]c2ccccc12)N1CCCN(C(C)C)CC1` (stereo not drawn) [TKB063B (25B)], in data set [1] (Table 3), it took 7.4 µM to reach a half-maximal effect (EC50). This compound also yielded a CC50 in data set [4] above 50 µM.
In turn, `CCN1CCCN([C@H](CCSC)C(=O)N2CCNCC2c2c[nH]c3ccccc23)CC1` (stereo partly drawn) [TON01 (36)] had an EC50 in data set [1] (setting [8]) of 20 µM. Further, the CC50 at 5 days in data set [3] (setting [9]) is above 50 µM.
As to `CCCN1CCCN([C@H](CCSC)C(=O)N2CCNCC2c2c[nH]c3ccccc23)CC1` (stereo partly drawn) [TON02 (37)], in data set [1] (setting [8]), the response was half-maximal at 8 µM (EC50). For the same compound, in data set [3] (setting [9]), the CC50 at 5 days was above 50 µM.
In the case of `CCC(C)N1CCCN([C@H](CCSC)C(=O)N2CCNCC2c2c[nH]c3ccccc23)CC1` (stereo partly drawn) [TON03 (38)], in data set [1] (setting [8]), the EC50 was 6.3 µM. Also, the CC50 at 5 days in data set [3] (setting [9]) is above 50 µM.
“Enfuvirtide (T-20): Peptide, fusion inhibitor”: in data set [2] (Fusion inhibitor, ref [66]), the IC50/EC50 is 0.003 µM.
For the compound “Ibalizumab: Antibody, CD4 binding inhibitor”, in data set [2] (CD4 binding inhibitor, ref [68]), the IC50/EC50 was 0.00029 µM.
As for Maraviroc, the IC90/EC90 result in data set [2] (CCR5 antagonist, ref [65]) was “(1.0 nM)”.
